Assay results from publication PMC4914611 (Nature nanotechnology, 2013).

Molecular target: CM11CD746~1R~TET (Chara corallina, UniProt Q9SSU1)
Conditions: actin filaments; 25 mM imidazole, 25 mM KCl, 1 mM EGTA, 2 mM free Mg2+

CM11CD746~1R~TET, sequence (Q9SSU1 1-746): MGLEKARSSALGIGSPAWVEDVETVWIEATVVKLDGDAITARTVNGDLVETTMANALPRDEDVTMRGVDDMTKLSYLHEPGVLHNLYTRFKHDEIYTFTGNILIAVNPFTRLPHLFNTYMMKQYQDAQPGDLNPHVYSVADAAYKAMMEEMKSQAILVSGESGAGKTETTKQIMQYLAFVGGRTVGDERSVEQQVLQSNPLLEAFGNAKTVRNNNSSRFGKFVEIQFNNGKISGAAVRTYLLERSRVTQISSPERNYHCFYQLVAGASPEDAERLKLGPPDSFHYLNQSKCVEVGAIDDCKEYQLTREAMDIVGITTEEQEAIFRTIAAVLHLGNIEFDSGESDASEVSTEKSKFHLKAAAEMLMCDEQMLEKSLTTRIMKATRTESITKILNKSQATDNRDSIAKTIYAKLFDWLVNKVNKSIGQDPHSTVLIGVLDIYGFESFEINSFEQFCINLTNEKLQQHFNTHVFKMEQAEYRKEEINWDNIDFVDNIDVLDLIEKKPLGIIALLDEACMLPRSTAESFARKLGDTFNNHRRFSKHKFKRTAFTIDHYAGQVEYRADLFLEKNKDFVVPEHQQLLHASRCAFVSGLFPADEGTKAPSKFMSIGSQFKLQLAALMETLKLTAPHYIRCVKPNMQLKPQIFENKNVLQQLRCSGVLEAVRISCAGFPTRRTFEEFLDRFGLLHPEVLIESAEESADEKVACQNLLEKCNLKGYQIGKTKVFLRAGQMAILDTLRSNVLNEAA

Question: How did the “single-molecule fluorescence tracking, run length and velocity vs [ATP]” value turn out when `Nc1ncnc2c1ncn2[C@@H]1O[C@H](COP(=O)(O)OP(=O)(O)OP(=O)(O)O)[C@@H](O)[C@H]1O` [ATP] was run?
Answer: velocities are shown (mean ± s.e.m.) as a function of [ATP]
